What is called Vmax is the rate approached at saturating substrate. As usually defined, the Km is the substrate concentration at which the rate is half of its maximum.

The results in this text go back to ChEMBL document CHEMBL4665867, “Design and synthesis of analogues of the sphingosine-1-phosphate receptor 1 agonist IMMH001 with improved phosphorylation rate in human blood” (Bioorg Med Chem, 2020).

Format in all cases: ADME, tissue-based
Data set [1] has as its target T1, Sphingosine kinase 1/2 (Homo sapiens, UniProt Q9NRA0+Q9NYA1). In words: Prodrug conversion in human blood assessed as SPHK1/SPHK2-mediated compound phosphorylation by measuring intrinsic clearance by LC-MS/MS analysis.
In data set [2] the target is T1, Sphingosine kinase 1/2. In words: Prodrug conversion in human blood assessed as SPHK1/SPHK2-mediated compound phosphorylation by measuring Vmax by LC-MS/MS analysis.
In data set [3] the target is T1, Sphingosine kinase 1/2. In words: Prodrug conversion in human blood assessed as SPHK1/SPHK2-mediated compound phosphorylation by measuring Km by LC-MS/MS analysis.
Data set [4] deals with T2, Sphingosine kinase 1/2 (Rattus norvegicus, UniProt Q91V26+A6JB73). In words: Prodrug conversion in rat blood assessed as SPHK1/SPHK2-mediated compound phosphorylation by measuring Vmax by LC-MS/MS analysis.
Data set [5] concerns the target T2, Sphingosine kinase 1/2. Description: Prodrug conversion in rat blood assessed as SPHK1/SPHK2-mediated compound phosphorylation by measuring Km by LC-MS/MS analysis.
Data set [6] has as its target T2, Sphingosine kinase 1/2. In words: Prodrug conversion in rat blood assessed as SPHK1/SPHK2-mediated compound phosphorylation by measuring intrinsic clearance by LC-MS/MS analysis.

The structures appear in SMILES notation.

Turning to `CCCc1nc(-c2ccc(-c3ccc(CCC(N)(CO)CO)cc3)cc2)co1.Cl`, the CL was found to be 0.012 µL/min on Sphingosine kinase 1/2 [1] and 0.437 µL/min at Sphingosine kinase 1/2 [6]. Further, the Vmax on Sphingosine kinase 1/2 [2] was 0.53 pmol/min; on Sphingosine kinase 1/2 [4], 37.24 pmol/min. Also, the Km on Sphingosine kinase 1/2 [3] worked out at 42.62 µM; on Sphingosine kinase 1/2 [5] it was 85.25 µM.

`CCCc1nc(-c2ccc(-c3ccc(CC[C@@](C)(N)CO)cc3)cc2)co1.Cl`: the CL at Sphingosine kinase 1/2 [1] was 0.025 µL/min; at Sphingosine kinase 1/2 [6], 0.175 µL/min. For the same compound, the Vmax on Sphingosine kinase 1/2 [2] was found to be 2.15 pmol/min; at Sphingosine kinase 1/2 [4], 4.13 pmol/min. Moreover, the Km at Sphingosine kinase 1/2 [3] was 86.55 µM; at Sphingosine kinase 1/2 [5] it was 23.6 µM.

For the compound `CCCc1nc(-c2ccc(-c3ccc(CC[C@@H](N)CO)cc3)cc2)co1.Cl`, the CL on Sphingosine kinase 1/2 [1] amounted to 0.049 µL/min; at Sphingosine kinase 1/2 [6], 0.334 µL/min. Further, the figures for the Vmax on Sphingosine kinase 1/2 [2] and at Sphingosine kinase 1/2 [4] were 2.63 pmol/min and 16.15 pmol/min, respectively. Moreover, the figures for the Km on Sphingosine kinase 1/2 [3] and at Sphingosine kinase 1/2 [5] were 54.12 µM and 48.37 µM, respectively.

Consider `CCCCCCCCc1ccc(CCC(N)(CO)CO)cc1.Cl` [FINGOLIMOD HYDROCHLORIDE], for which the CL at Sphingosine kinase 1/2 [1] was 0.013 µL/min; on Sphingosine kinase 1/2 [6], 0.95 µL/min. Also, the Vmax at Sphingosine kinase 1/2 [2] worked out at 0.31 pmol/min; on Sphingosine kinase 1/2 [4] it was 61.3 pmol/min. Further, the Km turned out to be 23.7 µM at Sphingosine kinase 1/2 [3] and 64.6 µM on Sphingosine kinase 1/2 [5].
